From patent US7741472B2, “Polynucleotide containing a phosphate mimetic” (Roche Diagnostics Operations, Inc., priority 2005, dated 2010) come the findings set out here.

This data set can be described thus: Stability of dinucleotides at different temperatures and pH, reverse phase HPLC. The data set is classed as physicochemical. The conditions noted are these: for stability: pH 7.0, 8.0 and 9.0, 24 h at rt, 1 h at 95° C. On the procedure:
dA(P(═NSO2PhNHAc)dT was synthesized and purified according to example 1) dAdT was also synthesized according to example 1, but standard oxidizers were used (0.02 M iodine in THF).
The dimers were exposed for different times and temperatures in 10 mM Tris buffer at different pH values 7.0, 8.0, and 9.0. Samples were left at room temperature (approx. 24° C.) for 24 h or at 95° C. for 60 min respectively 16 h. 150 μL aliquots were removed before and after the experiment and 100 μL volumes were injected on the HPLC.
The decomposition was monitored by reverse phase HPLC on an analytical X-Bridge column (2.5 μm, 4.6×50 mm i.d.) with a Waters 2690 separation module. Detection was carried out with a Waters 2996 PAD Detector (260 nm). A mobile phase of 0.1 M triethylammonium acetate (pH 6.8) pumped with a 95% gradient of acetonitrile at flow rate of 1.0 ml/min was used. The destruction rate of the dimers was judged by monitoring the retention time rt of the dimer signal (Software Millenium, Waters) and determining whether additional peaks with retention times different than that, of the nucleotide dimer occur.

Where [1] appears, read: pH 7.0, 10 mM Tris, 1 h at 95° C. (dry oven).
Where [2] appears, read: pH 7.0, 10 mM Tris, 16 h at 95° C. (dry oven).
Where [3] appears, read: pH 7.0, 10 mM Tris, 24 h at rt (24° C.).
[4] abbreviates: pH 7.0, 10 mM Tris, starting solution.
The mark [5] stands for this setting: pH 8.0, 10 mM Tris, 1 h at 95° C. (dry oven).
The mark [6] stands for this setting: pH 8.0, 10 mM Tris, 16 h at 95° C. (dry oven).
Where [7] appears, read: pH 8.0, 10 mM Tris, 24 h at rt (24° C.).
Setting [8] is: pH 8.0, 10 mM Tris, starting solution.
The mark [9] stands for this setting: pH 9.0, 10 mM Tris, 1 h at 95° C. (dry oven).
Setting [10] is: pH 9.0, 10 mM Tris, 16 h at 95° C. (dry oven).
Where [11] appears, read: pH 9.0, 10 mM Tris, 24 h at rt (24° C.).
[12] abbreviates: pH 9.0, 10 mM Tris, starting solution.

With “dA(P(═NSO2PhNHAc)dT [dA(P(=NSO2PhNHAc)dT]”, the stability result is reported as “stable”. Moreover, the decomposition entry (after 16 h at 95° C. at pH 7.0) was “started decomposing”. For the same substance, the “rtHPLC (retention time of the dimer signal)” value (from here on “rtHPLC”) under setting [1] is given as “rtHPLC = 2.99”. Moreover, under setting [2], the “additional peaks (decomposition)” value is given as 2 new peaks t = 1.2, 2.0 and the “rtHPLC” value is “rtHPLC = 2.99”. Besides, under setting [3], the “rtHPLC” value is “rtHPLC = 2.93”. Also, under setting [4], the “rtHPLC” value was “rtHPLC = 2.93”. Besides, the “rtHPLC” value under setting [5] was “rtHPLC = 2.92”. Besides, under setting [6], the “rtHPLC” value is listed as “rtHPLC = 2.92”. In addition, the “rtHPLC” value under setting [7] was “rtHPLC = 2.96”. In addition, the “rtHPLC” value under setting [8] is “rtHPLC = 2.96”. In addition, the “rtHPLC” value under setting [9] is “rtHPLC = 2.95”. The “rtHPLC” value under setting [10] was “rtHPLC = 2.95”. Under setting [11], the “rtHPLC” value is recorded as “rtHPLC = 2.92”. For the same substance, under setting [12], the “rtHPLC” value is “rtHPLC = 2.92”.

Turning to dAdT, the stability result is “stable”. For the same substance, where the note is “after 16 h at pH 7.0 and pH 8.0”, the decomposition entry was “started decomposing”. Further, under setting [1], the “rtHPLC” value is “rtHPLC = 2.48”. Besides, under setting [2], the “additional peaks (decomposition)” value is reported as 1 new peak t = 6.2 and the “rtHPLC” value was “rtHPLC = 2.42”. The “rtHPLC” value under setting [3] is reported as “rtHPLC = 2.39”. Also, the “rtHPLC” value under setting [4] was “rtHPLC = 2.39”. The “rtHPLC” value under setting [5] is “rtHPLC = 2.42”. Moreover, under setting [6], the “additional peaks (decomposition)” value amounted to 1 new peak 6.2 and the “rtHPLC” value is on record as “rtHPLC = 2.41”. The “rtHPLC” value under setting [7] is on record as “rtHPLC = 2.38”. Moreover, the “rtHPLC” value under setting [8] is reported as “rtHPLC = 2.38”. Besides, the “rtHPLC” value under setting [9] is “rtHPLC = 2.42”. In addition, under setting [10], the “rtHPLC” value is “rtHPLC = 2.43”. Under setting [11], the “rtHPLC” value is on record as “rtHPLC = 2.41”. The “rtHPLC” value under setting [12] is on record as “rtHPLC = 2.41”.
